Measured values as given in US20220267753A1, “RATIONAL THERAPEUTIC TARGETING OF ONCOGENIC IMMUNE SIGNALING STATES IN MYELOID MALIGNANCIES VIA THE UBIQUITIN CONJUGATING ENZYME UBE2N” (CHILDREN'S HOSPITAL MEDICAL CENTER, priority 2019, published 2022).

Assays:
UBE2N C87S mutant = target: T1, UBE2N C87S mutant (Homo sapiens, UniProt P61088, C87S); assay: Linear mass spectrometry (MALDI-TOF) analysis of drug binding; settings: MALDI-TOF-MS
T1 construct: purchased Genescript
Method: (§1) Recombinant UBE2N (2 .tg; Life sensors #UB218) in 3 .tl of buffer containing 20 mM Tris-HCl pH 7.4, 10 mM DTT, 10% glycerol, 150 mM NaCl and 0.02% DMSO as well as six samples of 1 .tg UBE2N mixed with 0.2 .tg of UC-764864 or UC-764865 were diluted to 50 ng/uL in 0.1% formic acid (FA) in preparation of MALDI-TOF analysis. Two .tl aliquots from the samples were used to make a 1:5 dilution with MALDI matrix (5 mg/mL sinapic acid in 60% ACN/0.1% formic acid) with 1 .tL spotted onto the target plate for analysis. For UBE2N C87S mutant, recombinant protein was purchased from Genescript. 2 micrograms of protein as well as 3 samples of UBE2N C87S were mixed with 0.4 micrograms of UC-764864 and UC-764865 in 10 microliters of buffer containing 20 mM Tris HCl pH 7.4, 1 mM DTT, 150 mM NaCl and ˜0.01% of DMSO in each sample. All mixtures were brought up to 40 ul by adding 30 ul of 0.1% formic acid (FA). 5 ul aliquots from the samples were used to make a 1:5 dilution with MALDI matrix as described above. All spectra were acquired in Linear Positive Ion Mode on an ABSciex 4800 MALDI-TOF/TOF instrument, with E. coli thioredoxin (11,674.5; MH+ avg) and horse muscle apomyoglobin (15,952.6; MH+ avg) as mass calibration standards. For DSF, all proteins (UBE2N wild type and UBE2N C87S) were used at a final concentration of 5 .tM. SYPRO Orange (Invitrogen 56651, Carlsbad, Calif.) was used at a final concentration of 10× for UBE2N wild type and UBE2N C87S. Experiments were carried out in 20 mM Tris-HCl pH 8, 150 mM NaCl, 1 mM TCEP, and 10% DMSO. UC-764865 was mixed with the proteins at increasing concentrations, each sample was divided into three 25 .tl replicates in 48-well optical plates (Thermo Fisher Scientific 4375816, Waltham, Mass.) and the plate was sealed with optical PCR plate sheet (Thermo Fisher Scientific 4375928). All experiments were performed on a StepOne Real-Time PCR System (Applied Biosystems 4376357, Foster City, Calif.). The temperature was raised in 1° C. increments from 25° C. to 95° C. and fluorescence was measured at 530 nm. Derivative Tm was determined using Protein Thermal Shift Software version 1.3 by Applied Biosystems and then were analyzed with Prism 6 (GraphPad Software Inc.).

UBE2N wild type = target: T2, UBE2N wild type (Homo sapiens, UniProt P61088); assay: as above; settings: MALDI-TOF-MS, incubated with compound
T2 construct: purchased Life sensors UB218
T2 sequence (P61088 1-152): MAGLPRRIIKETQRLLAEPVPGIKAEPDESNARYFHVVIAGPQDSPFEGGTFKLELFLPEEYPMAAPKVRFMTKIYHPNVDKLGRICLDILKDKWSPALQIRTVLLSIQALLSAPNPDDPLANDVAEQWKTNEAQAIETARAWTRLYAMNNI
Method: as §1

Plasma stability = format: in vitro ADME; design: half-life: dose or concentration left out as unconfirmed; settings: C57/Bl6 plasma, concentration 1 (mM), K2EDTA; for half-life: mouse, read-out: Plasma Stability T ½
[1] = Microsomal stability (mouse liver microsomes); format: in vitro ADME, C57/Bl6; settings: for Microsomal Stability % Remaning at T60 / CLint scaled / half-life: C57/Bl6, concentration 1 (mM), matrix 0.5 mg/ml; for CLint scaled: C57/Bl6, mouse; for CLint scaled / half-life: liver microsomes; for half-life: mouse, read-out: Microsomal Stability T ½
[2] = In vivo preclinical pharmacokinetic analysis; design: species or system C57BL/6 mice; settings: for drug-like / pharmacokinetic properties in words: mice; for AUC(0-inf) / AUC(0-t) / Cmax / Tmax / half-life: mouse, blood, ip, C57BL/6 mice, 20 mg/kg i.p., mean; for half-life: read-out: T½ (converted)
Method: PK studies of UC-764864 and UC-764865 were performed in C57BL/6 mice (18-22 g). 10 mg/kg and 20 mg/kg UC-764864 or UC-764865 was administered through intraperitoneal (i.p.) injection. After dosing, blood samples were collected at 15 min, 30 min, 1 h, 2 h, 4 h, 8 h, 12 h, and 24 h. Samples from three animals were collected at each time point. Approximately 500 μL of blood was collected via orbital vein from each mouse, processed, and analyzed by LC-MS. Standard curves were prepared in blood covering the concentration range of 50-3,0000 ng/mL. Using the data from the standard curves, calibration curves were generated for PK tests. For in vivo toxicity studies, 25 mg/kg UC-764864, UC-764865, 10 mg/kg NSC697923 or vehicle control (methocel 0.5% tween-20 0.2%,0.1% DMSO in water) were administered in B6.SJL-Ptprca Pepcb/BoyJ mice (n=3/group) through i.p. injection. For 2 weeks the mice received 4 doses of each compound. Routine body weight and blood counts were performed. At the end of the study, tissues were harvested, placed in 10% buffered formalin, stained with hematoxylin and eosin (H&E) and examined by a pathologist.

T1 sequence (P61088 whole entry C87S): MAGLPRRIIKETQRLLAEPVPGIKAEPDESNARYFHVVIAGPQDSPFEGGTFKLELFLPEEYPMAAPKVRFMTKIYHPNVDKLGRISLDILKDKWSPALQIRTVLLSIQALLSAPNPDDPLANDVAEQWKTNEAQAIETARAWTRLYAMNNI

Row | metabolism in mouse liver microsomes [1] | Structure (SMILES) | binding to recombinant UBE2N(C87S) (mass shift) (UBE2N C87S mutant) | mass shift of wild-type UBE2N protein (UBE2N wild type) [Da] | Plasma Stability % Remaning at T60 (Plasma stability) [%] | half-life (Plasma stability) [min] | Microsomal Stability % Remaning at T60 [1] [%] | CLint scaled [1] [mL/min/kg] | half-life [1] [min] | drug-like / pharmacokinetic properties in words [2] | AUC(0-inf) [2] [ng·h/mL] | AUC(0-t) [2] [ng·h/mL] | Cmax [2] [ng/mL] | Tmax [2] [min] | half-life [2] [min]
1 | readily metabolized | CCc1ccc(C(=O)C=CSc2nc3ccc(C)cc3[nH]2)cc1 [UC-764864, 1-(4-ethylphenyl)-3-[(6-methyl-1H-benzimidazol-2-yl)sulfanyl]prop-2-en-1-one] | does not bind | 160 | 21.4 | 31.8 | 0.02 | 1090 | 4.99 | poor pharmacokinetic (PK) properties | 461 | 436 | 446 | 15 | 124
2 |  | COc1ccc(C(=O)C=CSc2nc3ccc(C)cc3[nH]2)cc1 [UC-764865, 1-(4-methoxyphenyl)-3-[(6-methyl-1H-benzimidazol-2-yl)sulfanyl]prop-2-en-1-one] | does not bind | 160 | 39.6 | 53.6 | 0.2 | 1100 | 4.97 | modestly improved solubility, stability, and PK properties | 413 | 346 ± 46.3 | 216 | 19.8 | 528
